Experimental data published in patent US12138267B2, “Methods of treating respiratory depression modulated by a non-opioid agent” (Enalare Therapeutics Inc., priority 2021, dated 2024).
Entries after “also recorded” stand apart in the source; their conditions may differ. Like-named read-outs stand apart in the source and are kept apart here.

Tests used:
[1] = Pharmacokinetics of Compound A, plasma concentrations after IV infusion; format: in vivo, human; details: for AUC(0-inf) / AUC(0-t) / clearance / Cmax / half-life / Tmax: both sexes, human, plasma, intravenous
Experimental: (§1) Subjects underwent 3 separate treatment periods. […] PD will be unblinded for treatment but not subject. […] Participant Disposition
Pharmacokinetic samples were measured up to 24 hours after the start of the IV infusion. […] Therefore, a fast decrease in concentration was observed, followed by a slow […].

healthy participants [2] = tested on: healthy participants
healthy participants [3] = assay: Sedation (BIS), cardiovascular response and arterial blood gases; format: in vivo, human; details: versus placebo
healthy participants [4] = details: cited from earlier work
healthy participants [5] = assay: Safety and tolerability; format: in vivo, human
Excerpt: as §1
Moreover, the only participant who developed phlebitis received placebo. […] No clinically meaningful differences between treatments were identified in any other safety parameter.

[6] = Compound A (dose not given; third treatment), first hypoxic measurement under hypercapnic conditions, without propofol
[7] = Compound A (dose not given; third treatment), hypoxic/hypercapnic measurement during propofol high dose
[8] = Compound A low dose, first hypoxic measurement under hypercapnic conditions, without propofol
[9] = Compound A low dose, hypoxic/hypercapnic measurement during propofol high dose

**Q.** Which results are given for `CCCNc1nc(NCCC)nc(N(C)OC)n1` [Compound A]?
**A.** AUCinf Min ([1]; ENA-001 high dose, N 12): 6235 ng·h/mL; AUClast Max ([1]; ENA-001 high dose, N 12): 13169 ng·h/mL; AUClast Min ([1]; ENA-001 high dose, N 12): 6169 ng·h/mL; CL Max ([1]; ENA-001 high dose, N 12): 67.8 L/h; CL Min ([1]; ENA-001 high dose, N 12): 23.8 L/h; Cmax Min ([1]; ENA-001 high dose, N 12): 1090 ng/mL; Cmin Geometric Mean ([1]; ENA-001 high dose, N 12): 867.4 ng/mL; Cmin Max ([1]; ENA-001 high dose, N 12): 1230 ng/mL; Cmin Mean ([1]; ENA-001 high dose, N 12): 886.6 ng/mL; Cmin Median ([1]; ENA-001 high dose, N 12): 859 ng/mL; Cmin Min ([1]; ENA-001 high dose, N 12): 601 ng/mL; t1/2 Max ([1]; ENA-001 high dose, N 12): 8.40 h; t1/2 Min ([1]; ENA-001 high dose, N 12): 3.39 h; tmax Max ([1]; ENA-001 high dose, N 12): 4.50 h; tmax Min ([1]; ENA-001 high dose, N 12): 1.92 h; AUCinf Max ([1]; ENA-001 low dose, N 12): 3148 ng·h/mL; AUCinf Min ([1]; ENA-001 low dose, N 12): 2155 ng·h/mL; AUClast Max ([1]; ENA-001 low dose, N 12): 3059 ng·h/mL; AUClast Min ([1]; ENA-001 low dose, N 12): 2151 ng·h/mL; CL Max ([1]; ENA-001 low dose, N 12): 75.5 L/h; CL Min ([1]; ENA-001 low dose, N 12): 41.9 L/h; Cmax Max ([1]; ENA-001 low dose, N 12): 563 ng/mL; Cmax Min ([1]; ENA-001 low dose, N 12): 375 ng/mL; Cmin Geometric Mean ([1]; ENA-001 low dose, N 12): 299.6 ng/mL; Cmin Max ([1]; ENA-001 low dose, N 12): 379 ng/mL; Cmin Mean ([1]; ENA-001 low dose, N 12): 302.3 ng/mL; Cmin Median ([1]; ENA-001 low dose, N 12): 296 ng/mL; Cmin Min ([1]; ENA-001 low dose, N 12): 251 ng/mL; t1/2 Max ([1]; ENA-001 low dose, N 12): 6.99 h; t1/2 Min ([1]; ENA-001 low dose, N 12): 3.00 h; tmax Max ([1]; ENA-001 low dose, N 12): 4.50 h; tmax Min ([1]; ENA-001 low dose, N 12): 3.33 h; Plasma values at 24 hours post-dose ([1]; all participants, both dose levels): above the LLOQ; AUC(0-inf) ([1]; ENA-001 high dose, N 12, read-out: AUCinf Geometric Mean): 8440 ng·h/mL; AUC(0-inf) ([1]; ENA-001 high dose, N 12, read-out: AUCinf Mean): 8710 ng·h/mL; AUC(0-inf) ([1]; ENA-001 high dose, N 12, read-out: AUCinf Median): 7800 ng·h/mL; AUC(0-t) ([1]; ENA-001 high dose, N 12, read-out: AUClast Geometric Mean): 8240 ng·h/mL; AUC(0-t) ([1]; ENA-001 high dose, N 12, read-out: AUClast Mean): 8500 ng·h/mL; AUC(0-t) ([1]; ENA-001 high dose, N 12, read-out: AUClast Median): 7540 ng·h/mL; clearance ([1]; ENA-001 high dose, N 12, read-out: CL Geometric Mean (converted)): 735 mL/min; clearance ([1]; ENA-001 high dose, N 12, read-out: CL Mean (converted)): 756 mL/min; clearance ([1]; ENA-001 high dose, N 12, read-out: CL Median (converted)): 772 mL/min; Cmax ([1]; ENA-001 high dose, N 12, read-out: Cmax Geometric Mean): 1510 ng/mL; Cmax ([1]; ENA-001 high dose, N 12, read-out: Cmax Mean): 1560 ng/mL; Cmax ([1]; ENA-001 high dose, N 12, read-out: Cmax Median): 1520 ng/mL; half-life ([1]; ENA-001 high dose, N 12, read-out: t1/2 Geometric Mean (converted)): 5.49 h; half-life ([1]; ENA-001 high dose, N 12, read-out: t1/2 Mean (converted)): 5.64 h; half-life ([1]; ENA-001 high dose, N 12, read-out: t1/2 Median (converted)): 5.63 h; Tmax ([1]; ENA-001 high dose, N 12, read-out: tmax Geometric Mean): 3.84 h; Tmax ([1]; ENA-001 high dose, N 12, read-out: tmax Mean): 3.96 h; Tmax ([1]; ENA-001 high dose, N 12, read-out: tmax Median): 4.36 h; AUC(0-inf) ([1]; ENA-001 low dose, N 12, read-out: AUCinf Geometric Mean): 2660 ng·h/mL; AUC(0-inf) ([1]; ENA-001 low dose, N 12, read-out: AUCinf Mean): 2670 ng·h/mL; AUC(0-inf) ([1]; ENA-001 low dose, N 12, read-out: AUCinf Median): 2650 ng·h/mL; AUC(0-t) ([1]; ENA-001 low dose, N 12, read-out: AUClast Geometric Mean): 2610 ng·h/mL; AUC(0-t) ([1]; ENA-001 low dose, N 12, read-out: AUClast Mean): 2630 ng·h/mL; AUC(0-t) ([1]; ENA-001 low dose, N 12, read-out: AUClast Median): 2630 ng·h/mL; clearance ([1]; ENA-001 low dose, N 12, read-out: CL Geometric Mean (converted)): 918 mL/min; clearance ([1]; ENA-001 low dose, N 12, read-out: CL Mean (converted)): 929 mL/min; clearance ([1]; ENA-001 low dose, N 12, read-out: CL Median (converted)): 885 mL/min; Cmax ([1]; ENA-001 low dose, N 12, read-out: Cmax Geometric Mean): 463 ng/mL; Cmax ([1]; ENA-001 low dose, N 12, read-out: Cmax Mean): 468 ng/mL; Cmax ([1]; ENA-001 low dose, N 12, read-out: Cmax Median): 477 ng/mL; half-life ([1]; ENA-001 low dose, N 12, read-out: t1/2 Geometric Mean (converted)): 4.99 h; half-life ([1]; ENA-001 low dose, N 12, read-out: t1/2 Mean (converted)): 5.1 h; half-life ([1]; ENA-001 low dose, N 12, read-out: t1/2 Median (converted)): 5.05 h; Tmax ([1]; ENA-001 low dose, N 12, read-out: tmax Geometric Mean): 4.25 h; Tmax ([1]; ENA-001 low dose, N 12, read-out: tmax Mean): 4.26 h; Tmax ([1]; ENA-001 low dose, N 12, read-out: tmax Median): 4.33 h; AUC(0-inf) ([1]; high dose, read-out: highest individual AUCinf): 13800 ng·h/mL; Cmax ([1]; high dose, read-out: highest individual Cmax): 2600 ng/mL; AUC(0-inf) ([1]; high dose, read-out: mean (±SD) AUCinf): 8710 ± 2420 ng·h/mL; Cmax ([1]; high dose, read-out: mean (±SD) Cmax): 1560 ± 437 ng/mL; half-life ([1]; high dose, read-out: range of apparent terminal t1/2): 3.39 to 8.4 h; Tmax ([1]; high dose, read-out: tmax (mean peak concentrations)): 3.96 h; AUC(0-inf) ([1]; low dose, read-out: mean (±SD) AUCinf): 2670 ± 330 ng·h/mL; Cmax ([1]; low dose, read-out: mean (±SD) Cmax): 468 ± 68.2 ng/mL; half-life ([1]; low dose, read-out: range of apparent terminal t1/2): 3 to 6.99 h; Tmax ([1]; low dose, read-out: tmax (mean peak concentrations)): 4.26 h; Plasma concentration decline after infusion stop ([1]; from 4 hour 30 minutes onwards): bi-exponential decline; Average tmin ([1]; high dose): 1.133 h; Geometric mean Cav30-270 min (average arterial plasma concentration during 30-270 min) ([1]; high dose): 1161.69 ng/mL; Maximum concentration on average following IV infusion loading dose ([1]; high dose, 20 minutes loading dose 2.0 mg/kg/h): 1162.833 ng/mL; average Compound A concentration per propofol dosing interval ([1]; high dose, high propofol 200-270 min): 1412.28 ng/mL; average Compound A concentration per propofol dosing interval ([1]; high dose, low propofol 115-185 min): 1206.27 ng/mL; average Compound A concentration per propofol dosing interval ([1]; high dose, no propofol 30-100 min): 971.79 ng/mL; Effect of propofol on Compound A concentrations ([1]; in vivo): No apparent effect; Dose proportionality of PK ([1]; investigated dosing range, dose normalised AUC and Cav): Dose proportionality of PK over the investigated dosing range was apparent; also recorded: Dose proportionality of PK was apparent over the investigated dosing range; also recorded: showed dose proportionality over the investigated dosing range; Average tmin ([1]; low dose): 1.201 h; Geometric mean Cav30-270 min (average arterial plasma concentration during 30-270 min) ([1]; low dose): 366.40 ng/mL; Maximum concentration on average following IV infusion loading dose ([1]; low dose, 10 minutes loading dose 2.0 mg/kg/h): 857.000 ng/mL; average Compound A concentration per propofol dosing interval ([1]; low dose, high propofol 200-270 min): 427.54 ng/mL; average Compound A concentration per propofol dosing interval ([1]; low dose, low propofol 115-185 min): 359.75 ng/mL; average Compound A concentration per propofol dosing interval ([1]; low dose, no propofol 30-100 min): 323.41 ng/mL; Steady state ([1]; within the 260 and 250 minute infusions): steady-state concentrations were not reached; also recorded: did not reach steady state; Minute ventilation during hypoxic measurement (healthy participants [2]; [6]): 38.8 L/min; Minute ventilation, pre-hypoxic baseline (healthy participants [2]; [6]): 8.5 L/min; Minute ventilation during hypoxic measurement (healthy participants [2]; [7]): 27.4 L/min; Minute ventilation, pre-hypoxic baseline (healthy participants [2]; [7]): 8.4 L/min; ETCO2 difference prior to each hypoxic measurement (healthy participants [2]; Compound A high dose compared to placebo and low dose): approximately 3 mmHg; Increase in minute ventilation induced by hypercapnia (healthy participants [2]; Compound A high dose group, during high dose propofol): more pronounced; Respiratory rate at pre-hypoxic timepoints (healthy participants [2]; Compound A high dose, during propofol infusion): difference between Compound A high dose compared to placebo and Compound A low dose could be observed; ETCO2 compared to placebo (healthy participants [2]; Compound A low dose): comparable to placebo treatment; Hypoxic Sensitivity, First LSM of contrast (healthy participants [2]; Compound A low dose (2 mg/kg/h 10 min then 0.4 mg/kg/h 260 min IV)): 0.747 L/min/%; Minute ventilation during hypoxic measurement (healthy participants [2]; [8]): 30.3 L/min; Minute ventilation, pre-hypoxic baseline (healthy participants [2]; [8]): 8.1 L/min; Minute ventilation during hypoxic measurement (healthy participants [2]; [9]): 15.0 L/min; Minute ventilation, pre-hypoxic baseline (healthy participants [2]; [9]): 6.3 L/min; Hypoxic sensitivity compared to placebo (healthy participants [2]; both with and without co-administration of propofol): increased hypoxic sensitivity compared to placebo; Hypoxic Sensitivity, First LSM of contrast (healthy participants [2]; high dose (2 mg/kg/h 20 min then 1.1 mg/kg/h 250 min IV)): 1.179 L/min/%; Hypoxic Sensitivity, Estimate of the difference (healthy participants [2]; high dose minus placebo): 0.575 L/min/%; Hypoxic sensitivity during propofol (healthy participants [2]; in vivo, 1.1 mg/kg): remain similar to pre-propofol values; Hypoxic Sensitivity, Estimate of the difference (healthy participants [2]; low dose minus placebo): 0.144 L/min/%; Cardiovascular response (healthy participants [3]): No clinically meaningful difference on cardiovascular response; Level of propofol-induced sedation / arousal, BIS (healthy participants [3]; with clinically relevant doses of propofol): did not impact the level of the propofol-induced sedation; also recorded: did not lead to a significant difference in arousal compared to placebo; Ventilatory stimulation (healthy participants [4]; high dose (1.1 mg/kg/h), healthy participants, Roozekrans et al., 2014): clear ventilatory stimulation; Stimulatory effects on minute ventilation (healthy participants [4]; low dose (0.4 mg/kg/h), McLeod et al., 2014): no/minimal stimulatory effects on minute ventilation; Nausea in previous studies (healthy participants [4]; previous studies): nausea was associated with Compound A administration; Nausea probably related to treatment (healthy participants [5]; Compound A high dose, IV ondansetron pre-treatment): single occurrence of mild nausea; Treatment-related SAEs (healthy participants [5]; in vivo): No treatment-related SAEs; Trend in AEs (healthy participants [5]; in vivo): mild infusion site pain and related events; Safety and tolerability (healthy participants [5]; two dose levels, healthy participants): safe and well tolerated; also recorded: favourable safety and tolerability profiles
